# PMC3288161 (Accounts of Chemical Research, 2011)
# What was measured:
# [1] = target: T1, SCO7701 (C-methyltransferase) (Streptomyces coelicolor, UniProt Q9F1Y5); experiment: incubation with recombinant enzyme, product identification; type: biochemical
# T1 sequence (Q9F1Y5 1-292): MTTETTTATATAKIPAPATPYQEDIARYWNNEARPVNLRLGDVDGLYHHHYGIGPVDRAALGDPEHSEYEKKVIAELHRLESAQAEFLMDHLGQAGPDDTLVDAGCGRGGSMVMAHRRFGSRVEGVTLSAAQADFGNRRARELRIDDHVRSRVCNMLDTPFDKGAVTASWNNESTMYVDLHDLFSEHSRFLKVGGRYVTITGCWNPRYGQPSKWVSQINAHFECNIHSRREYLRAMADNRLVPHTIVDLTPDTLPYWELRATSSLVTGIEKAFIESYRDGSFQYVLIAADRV
# [2] = target: T2, PtlA (SAV_2998), pentalenene synthase (Streptomyces avermitilis, UniProt Q82IY4); experiment: as above; type: biochemical
# T2 sequence (Q82IY4 1-336): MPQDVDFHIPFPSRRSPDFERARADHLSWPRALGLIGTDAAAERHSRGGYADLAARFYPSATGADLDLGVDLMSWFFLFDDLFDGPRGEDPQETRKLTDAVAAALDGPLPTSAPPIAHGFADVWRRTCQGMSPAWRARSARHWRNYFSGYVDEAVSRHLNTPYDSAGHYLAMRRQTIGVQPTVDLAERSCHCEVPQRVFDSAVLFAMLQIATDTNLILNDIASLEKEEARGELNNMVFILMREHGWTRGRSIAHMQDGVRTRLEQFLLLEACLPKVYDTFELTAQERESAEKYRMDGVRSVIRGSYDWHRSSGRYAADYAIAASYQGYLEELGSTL
# [3] = target: T3, avermitilol synthase (SAV_76) (Streptomyces avermitilis, UniProt Q82RR7); experiment: incubation with purified recombinant enzyme, product identification; type: biochemical; details: main product avermitilol
# T3 sequence (Q82RR7 1-335): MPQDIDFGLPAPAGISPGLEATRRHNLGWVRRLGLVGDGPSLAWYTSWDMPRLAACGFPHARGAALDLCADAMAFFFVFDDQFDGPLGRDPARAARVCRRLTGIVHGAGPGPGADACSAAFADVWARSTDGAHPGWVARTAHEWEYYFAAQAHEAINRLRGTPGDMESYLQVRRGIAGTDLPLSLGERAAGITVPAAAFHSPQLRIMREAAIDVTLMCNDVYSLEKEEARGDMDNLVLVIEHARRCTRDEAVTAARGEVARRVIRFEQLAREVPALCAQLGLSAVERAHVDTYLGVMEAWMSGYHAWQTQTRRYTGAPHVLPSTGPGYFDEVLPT
# [4] = target: T4, epi-isozizaene synthase (SCO5222) (Streptomyces coelicolor, UniProt Q9K499); experiment: incubation with recombinant enzyme, product identification; type: biochemical
# T4 sequence (Q9K499 1-361): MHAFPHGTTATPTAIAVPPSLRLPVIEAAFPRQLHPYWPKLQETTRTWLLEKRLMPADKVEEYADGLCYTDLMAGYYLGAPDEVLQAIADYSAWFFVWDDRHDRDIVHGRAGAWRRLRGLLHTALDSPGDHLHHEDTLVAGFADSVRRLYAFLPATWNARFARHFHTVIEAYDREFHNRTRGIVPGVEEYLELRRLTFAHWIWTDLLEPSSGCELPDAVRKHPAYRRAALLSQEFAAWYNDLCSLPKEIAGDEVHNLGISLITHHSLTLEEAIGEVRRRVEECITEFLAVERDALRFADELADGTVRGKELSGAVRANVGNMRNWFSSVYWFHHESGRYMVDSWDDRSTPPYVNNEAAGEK
# PtlI (SAV_2999) = PtlI (SAV_2999) (Streptomyces avermitilis, UniProt Q82IY3); details: oxidation to pentalenal
smiles,measurement,setting,value
C[S+](CC[C@H](N)C(=O)O)C[C@H]1O[C@@H](n2cnc3c(N)ncnc32)[C@H](O)[C@@H]1O (stereo partly drawn) [S-adenosyl-L-methionine],"incubation with recombinant enzyme, product identification","[1]; co-substrate GPP, methyl donor",Incubation of GPP and SAM with recombinant SCO7701 gave exclusively
"CC(C)=CCC/C(C)=C/COP(=O)(O)OP(=O)(O)O [compound 3, geranyl diphosphate]","incubation with recombinant enzyme, product identification","[1]; co-substrate SAM, product 2-MeGPP",Incubation of GPP and SAM with recombinant SCO7701 gave exclusively
"CC(C)=CCC/C(C)=C/CC/C(C)=C/COP(=O)(O)OP(=O)(O)O [compound 4, farnesyl diphosphate]","incubation with recombinant enzyme, product identification",[2],Incubation of recombinant PtlA with FPP gave pentalenene
same,"incubation with purified recombinant enzyme, product identification",[3],Incubation of the purified recombinant SAV76 protein with FPP gave a mixture
same,"incubation with recombinant enzyme, product identification",[4],Incubation of the recombinant protein with FPP gave as the major product
"CC1=C[C@@H]2CC(C)(C)C[C@@]23[C@H](C)CC[C@@H]13 [compound 6, pentalenene]","expressed enzyme, product identification",PtlI (SAV_2999),cytochrome P450 catalyzing the 3-step oxidation of pentalenene to pentalenal
